In patent US9765056B2, “Indole and pyrrole compounds, a process for their preparation and pharmaceutical compositions containing them” (LES LABORATOIRES SERVIER, priority 2013, dated 2017):
Where a name gives a salt, the structure may show the parent alone.

Legend:
Bcl-2 protein = Bcl-2 protein (histag-Bcl-2, UniProtKB P10415) (Homo sapiens (Human), UniProt P10415); assay: Inhibition of Bcl-2 by the fluorescence polarisation technique; assay type: binding; settings: fluorescence polarisation test; method A, or method B where underlined (underlining not visible); read-out: IC50 (nM) Bcl-2 FP
Text: Inhibition of Bcl-2 by the fluorescence polarisation technique

[1] = tested on: RS4;11 leukaemia tumour line; assay: In vitro cytotoxicity, Microculture Tetrazolium Assay (MTT); assay type: cell-based; settings: Homo sapiens; RS4;11 cells, 48 hours exposure
Method: The cytotoxicity studies were carried out on the RS4;11 leukaemia tumour line.
The cells are distributed onto microplates and exposed to the test compounds for 48 hours. The cell viability is then quantified by a colorimetric assay, the Microculture Tetrazolium Assay (Cancer Res., 1987, 47, 939-942).

Chain of Bcl-2 protein (P10415 whole entry): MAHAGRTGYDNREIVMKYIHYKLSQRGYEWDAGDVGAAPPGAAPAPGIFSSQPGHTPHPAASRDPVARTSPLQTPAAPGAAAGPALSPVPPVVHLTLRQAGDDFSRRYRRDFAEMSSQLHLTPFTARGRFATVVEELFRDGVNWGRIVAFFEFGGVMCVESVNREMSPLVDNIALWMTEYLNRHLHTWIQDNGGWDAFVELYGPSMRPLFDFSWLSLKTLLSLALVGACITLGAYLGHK

Compound	IC50 (Bcl-2 protein) [nM]	IC50 [1] [nM]
Cc1cc(C(=O)N(c2ccc(O)cc2)c2ccc3c(ccn3C)c2)cn1-c1cc(Cl)c(F)cc1C(=O)N1Cc2ccccc2C[C@H]1CN1CCN(C)CC1 [Example 77, 1-(5-Chloro-4-fluoro-2-{[(3S)-3-[(4-methylpiperazin-1-yl)methyl]-3,4-dihydroisoquinolin-2(1H)-yl]carbonyl}phenyl)-N-(4-hydroxyphenyl)-5-methyl-N-(1-methyl-1H-indol-5-yl)-1H-pyrrole-3-carboxamide hydrochloride]	4.9	207
Cc1cc(C(=O)N(c2ccccc2)c2ccc(O)cc2)cn1-c1cc(Br)c(Br)cc1C(=O)N1Cc2ccccc2C[C@H]1CN1CCN(C)CC1 [Example 16, 1-(4,5-Dibromo-2-{[(3S)-3-[(4-methylpiperazin-1-yl)methyl]-3,4-dihydroisoquinolin-2(1H)-yl]carbonyl}phenyl)-N-(4-hydroxyphenyl)-5-methyl-N-phenyl-1H-pyrrole-3-carboxamide]	29.6	656
COc1ccc(C(=O)N2Cc3ccccc3C[C@H]2CN)c(-n2nc(C(=O)N(c3ccccc3)c3ccccc3)c3ccccc32)c1 [Example 150, 1-{2-[(3S)-3-(Aminomethyl)-1,2,3,4-tetrahydroisoquinoline-2-carbonyl]-5-methoxyphenyl}-N,N-diphenyl-1H-indazole-3-carboxamide]	51	1320
Cc1cc(C(=O)N(c2ccccc2)c2ccc(O)cc2)cn1-c1cc2c(cc1C(=O)N1Cc3ccccc3C[C@H]1CCN1CCOCC1)OCO2 [Example 120, N-(4-Hydroxyphenyl)-5-methyl-1-(6-{[(3S)-3-[2-(morpholin-4-yl)ethyl]-3,4-dihydroisoquinolin-2(1H)-yl]carbonyl}-1,3-benzodioxol-5-yl)-N-phenyl-1H-pyrrole-3-carboxamide hydrochloride]	15	367
CN1CCN(C[C@@H]2Cc3ccccc3CN2C(=O)c2cc3c(cc2-n2cc(C(=O)N(c4ccccc4)c4ccc(O)cc4)c4ccccc42)OCO3)CC1 [Example 164, N-(4-Hydroxyphenyl)-1-{6-[(3S)-3-[(4-methylpiperazin-1-yl)methyl]-1,2,3,4-tetrahydroisoquinoline-2-carbonyl]-2H-1,3-benzodioxol-5-yl}-N-phenyl-1H-indole-3-carboxamide dihydrochloride]	7.8	132
Cc1cc(C(=O)N(c2ccc(O)cc2)c2ccc3c(ccn3C)c2)cn1-c1cc2c(cc1C(=O)N1Cc3ccccc3C[C@H]1CN1CCOCC1)CCO2 [Example 118, N-(4-Hydroxyphenyl)-5-methyl-N-(1-methyl-1H-indol-5-yl)-1-(5-{[(3S)-3-(morpholin-4-ylmethyl)-3,4-dihydroisoquinolin-2(1H)-yl]carbonyl}-2,3-dihydro-1-benzofuran-6-yl)-1H-pyrrole-3-carboxamide]	5.9	114
CN(C)c1ccc(-n2nc(C(=O)N(c3ccccc3)c3ccccc3)c3ccccc32)c(C(=O)N2Cc3ccccc3C[C@H]2CN)c1 [Example 141, 1-{2-[(3S)-3-(Aminomethyl)-1,2,3,4-tetrahydroisoquinoline-2-carbonyl]-4-(dimethylamino)phenyl}-N,N-diphenyl-1H-indazole-3-carboxamide]	56.7	2280
NC[C@@H]1Cc2ccccc2CN1C(=O)c1ccccc1-n1cc(C(=O)N(c2ccccc2)c2ccccc2)c2ccccc21 [Example 123, 1-{2-[(3S)-3-(Aminomethyl)-1,2,3,4-tetrahydroisoquinoline-2-carbonyl]-phenyl}-N,N-diphenyl-1H-indole-3-carboxamide]	90	2370
Cc1cc(C(=O)N(c2ccc(O)cc2)c2ccc3c(ccn3C)c2)cn1-c1cc(Cl)ccc1C(=O)N1Cc2ccccc2C[C@H]1CN(C)C [Example 95, 1-(5-Chloro-2-{[(3S)-3-[(dimethylamino)methyl]-3,4-dihydroisoquinolin-2(1H)-yl]carbonyl}phenyl)-N-(4-hydroxyphenyl)-5-methyl-N-(1-methyl-1H-indol-5-yl)-1H-pyrrole-3-carboxamide hydrochloride]	6.4	264
COc1cc(-n2cc(C(=O)N(c3ccc(O)cc3)c3ccc(F)cc3)c3ccccc32)c(C(=O)N2Cc3ccccc3C[C@H]2CN2CCN(C)CC2)cc1O [Example 201, N-(4-Fluorophenyl)-1-{4-hydroxy-5-methoxy-2-[(3S)-3-[(4-methylpiperazin-1-yl)methyl]-1,2,3,4-tetrahydroisoquinoline-2-carbonyl]phenyl}-N-(4-hydroxyphenyl)-1H-indole-3-carboxamide dihydrochloride]	3.1	124
Cc1cc(C(=O)N(c2ccc(O)cc2)c2ccc3[nH]ccc3c2)cn1-c1cc(Br)ccc1C(=O)N1Cc2ccccc2C[C@H]1CN1CCC(F)(F)CC1 [Example 79, 1-(5-Bromo-2-{[(3S)-3-[(4,4-difluoropiperidin-1-yl)methyl]-3,4-dihydroisoquinolin-2(1H)-yl]carbonyl}phenyl)-N-(4-hydroxyphenyl)-N-(1H-indol-5-yl)-5-methyl-1H-pyrrole-3-carboxamide]	85.5	344
CN1CCN(C[C@@H]2Cc3ccccc3CN2C(=O)c2ccc(Cl)cc2-n2cc(C(=O)N(c3ccc(O)cc3)c3ccc(O)cc3)c3ccccc32)CC1 [Example 73, 1-(5-Chloro-2-{[(3S)-3-[(4-methylpiperazin-1-yl)methyl]-3,4-dihydroisoquinolin-2(1H)-yl]carbonyl}phenyl)-N,N-bis(4-hydroxyphenyl)-1H-indole-3-carboxamide]	3.9	51.4
CCCCN(CCCC)C(=O)c1cn(-c2ccc(NC(=O)CSc3ccccc3)cc2C(=O)N2Cc3ccccc3C[C@H]2CN2CCN(C)CC2)c2ccccc12 [Example 199, N,N-Dibutyl-1-{2-[(3S)-3-[(4-methylpiperazin-1-yl)methyl]-1,2,3,4-tetrahydroisoquinoline-2-carbonyl]-4-[2-(phenylsulphanyl)acetamido]phenyl}-1H-indole-3-carboxamide]	57.7	2360
Cc1cc(C(=O)N(c2ccc(O)cc2)c2ccc3[nH]ccc3c2)cn1-c1cc(Br)ccc1C(=O)N1Cc2ccccc2C[C@H]1CN1CCN(C2CCC2)CC1 [Example 102, 1-(5-Bromo-2-{[(3S)-3-[(4-cyclobutylpiperazin-1-yl)methyl]-3,4-dihydroisoquinolin-2(1H)-yl]carbonyl}phenyl)-N-(4-hydroxyphenyl)-N-(1H-indol-5-yl)-5-methyl-1H-pyrrole-3-carboxamide]	8.4	108
Cc1cc(C(=O)N(c2ccc(O)cc2)c2ccc(O)cc2)cn1-c1cc(Br)ccc1C(=O)N1Cc2ccccc2C[C@H]1CN1CCN(C)CC1 [Example 61, 1-(5-Bromo-2-{[(3S)-3-[(4-methylpiperazin-1-yl)methyl]-3,4-dihydroisoquinolin-2(1H)-yl]carbonyl}phenyl)-N,N-bis(4-hydroxyphenyl)-5-methyl-1H-pyrrole-3-carboxamide]	7.7	204
Cc1cc(C(=O)N(c2ccccc2)c2ccc(O)c(Cl)c2)cn1-c1cc(Cl)ccc1C(=O)N1Cc2ccccc2C[C@H]1CN1CCN(C)CC1 [Example 27, N-(3-Chloro-4-hydroxyphenyl)-1-(5-chloro-2-{[(3S)-3-[(4-methylpiperazin-1-yl)methyl]-3,4-dihydroisoquinolin-2(1H)-yl]carbonyl}phenyl)-5-methyl-N-phenyl-1H-pyrrole-3-carboxamide hydrochloride]	20.5	479
